# Where two headings read alike, the source gives them in different places. Non-standard residues stand in square brackets, D forms with d. Residues, ends and D or L forms follow the SMILES beside them.
# Columns and labels:
# PC3 cells [1] = details: for cell survival: MTT
# Experimental: 20,000 PC3 cells were plated overnight in 96 well plates (Costar) at a concentration of 200,000 cells/ml. They are treated with the peptides, doxorubicin, docetaxel alone, or in combination for different time period incubation and the cell viability was determined by MTT assay as described. The percentage survival of the cells with different treatments was calculated using DMSO-vehicle control-treated cells as the standard.
# Chk2 in PC3 cells = assay: Phospho-Chk2 by flow cytometry; format: cell-based; details: PC3, 1 µM doxorubicin on its own, 48 h
# Experimental: They were subsequently treated with either 50-200 μM […] or 50-100 μM […] or 0.5-1 μM doxorubicin or combination treatment for 0, 12, 24, 36 and 48 h. […] Samples were analyzed using a Becton Dickinson FACS Canto flow cytometer at a forward scatter voltage of 25 V, side-scatter voltage of 400 V, and FITC channel at a voltage of 400 V.
# HeLa cells = assay: TUNEL assay, HeLa, with z-VAD-fmk or z-FA-fmk; format: cell-based
# Experimental: 600,000 PC3 cells or 500,000 HeLa cells were plated in 60-mm dishes or 6-well plates respectively to allow them to attach overnight at 37°C with 5% CO2. PC3 cells were subsequently treated with appropriate treatments for 24, 36 and 48 h while HeLa cells were treated with 1 µl of either the caspase inhibitor z-VAD-fmk or z-FA-fmk (both from Biovision), containing appropriate treatments, for 24 h. The cells were fixed with 4% paraformaldehyde for 30 min and permeabilized with 0.1% Triton X-100 in 0.1% sodium citrate buffer for 3 mins. Labeled dUTP were added along with the terminal deoxynucleotidyl transferase dUTP nick end labeling (TUNEL) (TUNEL kit from Roche) as described in the kit. Samples were analyzed using a Becton Dickinson FACS Canto flow cytometer as specified above.
# [2] = system: Htog1 cells (variant of HeLa cells); assay: Cytochrome C release / TMRE assay for apoptosis; format: cell-based; details: 150 µM etoposide, 24 h, positive control
# Experimental: 200,000 Htog1 cells (variant of HeLa cells, a generous gift from Drs. Terrence Frey and Maria Guo) were seeded on cover slips mounted on 35 mm microwell petri dishes (Mattek Corp, Ashland, MA) with DMEM supplemented with 10% FBS and allowed to attach overnight at 37°C in 5% CO2. The media was replaced with 1 ml of the appropriate treatment and incubated for 24 h. After 23 h of treatment, 50 µM tetramethyl rhodamine ethyl ester perchlorate (TMRE) solution was added to each well (final concentration 50 nM) and incubated for the remaining hour. Cytochrome C release and loss of TMRE staining were determined in Z-series images acquired using a Leica TCS SP2 inverted confocal microscope. GFP was excited using 488 nm wavelength from an Ar/Kr laser attenuated to 33%, and the emitted fluorescence detected at 497–553 nm. TMRE fluorescence was excited using a 543 nm wavelength from an Ar/Kr laser attenuated to 35%, and the emitted fluorescence detected at 555–620 nm. Each cell was analyzed for release of GFP (GFP channel), loss of mitochondrial membrane potential (TMRE loss) or morphological abnormalities associated with apoptosis, and the % cells positive for each hallmark was calculated for the various treatments.
# LnCAP cells = format: cell-based; details: 48 h
# DuPro-1 cells = format: cell-based; details: 48 h
# PC3 cells [3] = assay: HPLC determination of intracellular and extracellular peptide concentration; format: in vitro ADME
# Experimental: 500,000 HeLa or 400,000 PC3 cells were plated in each well of the 6-well dishes (Costar) and allowed to attach overnight at 37°C with 5% CO2. The cells were treated with d-wrwycr or d-wrwyrggrywrw for 24 or 48 h respectively. For PC3 cells media along with the dodecamer treatments were collected for a separate run in HPLC. PC3 or HeLa cells were lysed using a lysis buffer containing 0.71% NP40, 71 mM Tris (pH 7.5), 0.71 mM EDTA and 212 mM NaCl on ice for 5–10 mins. The lysates were centrifuged at 13,000 g for 7 mins to clear cellular debris. The samples were analyzed by HPLC (Beckman Coulter System Gold BioEssential 126/168) using a Phenomonex Jupiter 4 micron Proteo 90A C18 hydrophobic column to detect the peptides within the cells. […] The intracellular concentration was calculated by taking into account the area under the peptide peaks, using the integration function of 32 Karat software (Beckman Coulter, Fullerton, California), and comparing them to the standard curve of the peptide. […] The extracellular concentration of wrwyrggrywrw was calculated by running the media similarly in HPLC and comparing them to the standard curve of wrwyrggrywrw.
# To investigate whether peptide wrwycr or wrwyrggrywrw accumulated within cells, the concentration of the unlabeled and unmodified peptides was directly determined using an HPLC-based method. […]
# [4] = system: GRP78 promoter in HeLa cells; assay: Luciferase reporter assay for ER stress; format: cell-based; details: positive control
# Experimental: HeLa cells were transfected with either either 15 µg of plasmid DJT208, carrying the GRP78 promoter (pGRP78) driving the ER-stress response elements ERSE 1, ERSE 2 and ERSE 3 upstream of the luciferase gene, or 15 µg of the plasmid GL2P, carrying the luciferase gene driven by the SV40 promoter (pSV40). All cells were also co-transfected with 10 µg of the PB1 plasmid, carrying the β-galactosidase reporter transcribed by the SV40 promoter, as a transfection control. [The plasmids were generous gifts from Dr. Peter Belmont from Christopher Glembotski's Lab in SDSU]. After 24 h the cells were treated with increasing concentrations of wrwycr (100, 150 and 200 µM) for 24 h and the luciferase activity was measured using an OptocompII Luminometer. Tunicamycin (TM), a known inducer of ER stress, was used as a positive control for the experiment ER stress was calculated as the fold increase of luciferase gene expression from the GRP78 promoter over that from the SV40 promoter of pGL2P for the different concentrations of the peptide over DMSO, which is the solvent for the peptide, or over the media in the case of TM.
compound,measurement,setting,value
CC(=O)O[C@@]12CO[C@@H]1C[C@H](O)[C@@]1(C)C(=O)[C@H](O)C3=C(C)[C@@H](OC(=O)[C@H](O)[C@@H](NC(=O)OC(C)(C)C)c4ccccc4)C[C@@](O)([C@@H](OC(=O)c4ccccc4)[C@H]21)C3(C)C [docetaxel],cell survival,"PC3 cells [1]; PC3, 10 nM docetaxel, 48 h",90%
same,cell survival,"PC3 cells [1]; PC3, 50 nM docetaxel, 48 h",80%
COc1cccc2c1C(=O)c1c(O)c3c(c(O)c1C2=O)C[C@@](O)(C(=O)CO)C[C@@H]3O[C@H]1C[C@H](N)[C@H](O)[C@H](C)O1 [doxorubicin],cell survival,"PC3 cells [1]; PC3, 1 µM doxorubicin alone, time course, evident at 36 h (Figure 9B)",80%
same,cell survival,"PC3 cells [1]; PC3, 2.5 µM doxorubicin alone, 48 h",73%
same,cellular population with activated Chk2,Chk2 in PC3 cells,50%
"COc1cc([C@@H]2c3cc4c(cc3[C@@H](O[C@@H]3O[C@@H]5CO[C@@H](C)O[C@H]5[C@H](O)[C@H]3O)[C@H]3COC(=O)[C@H]23)OCO4)cc(OC)c1O [etoposide, reference compound]",TUNEL-positive cells,HeLa cells; 1.3 µM etoposide alone,< 2%
same,cytochrome C release and mitochondrial membrane potential,[2],loss of mitochondrial membrane potential and release of cytC
NC(=O)NO [hydroxyurea],TUNEL-positive cells,HeLa cells; 10 mM hydroxyurea alone,< 2%
OC[C@@H](O)[C@@H](O)[C@H](O)[C@@H](O)CO [sorbitol],TUNEL-positive cells,HeLa cells; 400 mM sorbitol with mock inhibitor z-FA-fmk,~80%
same,TUNEL-positive cells,HeLa cells; 400 mM sorbitol with z-VAD-fmk inhibitor,< 10%
N=C(N)NCCC[C@@H](NC(=O)CNC(=O)CNC(=O)[C@@H](CCCNC(=N)N)NC(=O)[C@@H](Cc1ccc(O)cc1)NC(=O)[C@@H](Cc1c[nH]c2ccccc12)NC(=O)[C@@H](CCCNC(=N)N)NC(=O)[C@H](N)Cc1c[nH]c2ccccc12)C(=O)N[C@H](Cc1ccc(O)cc1)C(=O)N[C@H](Cc1c[nH]c2ccccc12)C(=O)N[C@H](CCCNC(=N)N)C(=O)N[C@H](Cc1c[nH]c2ccccc12)C(N)=O [wrwyrggrywrw] (H-[dW][dR][dW][dY][dR]GG[dR][dY][dW][dR][dW]-NH2),IC50,PC3 cells [1]; 48 h,50 µM
same,IC50,LnCAP cells,25 µM
same,IC50,DuPro-1 cells,25 µM
same,intracellular concentration,"PC3 cells [3]; 25 µM input dose, PC3 cells, 48 h, cell lysate soluble fraction, HPLC C18 against standard curve, cell volume 1.6–2.4 pl",~1 mM
same,peptide in the media less than input,"PC3 cells [3]; media with 10% FBS after treatment of PC3 cells, several input concentrations, HPLC (Figure 2Aii)",5–10%
Tunicamycin,pGRP78 Units,[4]; concentration not given,425255±16205
same,pSV40 Units,[4]; concentration not given,4606±362.1
same,pGRP78/pSV40,[4]; over the media,20.0±1.36
same,pGRP78 Fold change,[4]; over the media,7.9±0.09
same,pSV40 Fold change,[4]; over the media,0.4±0.02
